From ChEMBL document CHEMBL3758102, “Serrulatane Diterpenoid from Eremophila neglecta Exhibits Bacterial Biofilm Dispersion and Inhibits Release of Pro-inflammatory Cytokines from Activated Macrophages” (J Nat Prod, 2015)
Values after ≈ are worked out from the molar mass of the structure shown. Active and inactive are the calls of the source. No cut-off for these calls is given here.

Experiments:
[1] = test system: BMDM; assay: Inhibition of IL-6 production in C57Bl/6 mouse BMDM cells at 2.5 to 80 uM pretreated prior to LPS-stimulation measured on day 7 by ELISA; type: functional, cell-based; conditions: C57BI/6
[2] = test system: BMDM; assay: Decrease in IL-1beta production in C57Bl/6 mouse BMDM cells at 2.5 to 80 uM pretreated for 1 hr prior to ATP-stimulation by ELISA; type: functional, cell-based; conditions: C57BI/6
[3] = test system: BMDM; assay: Increase in IL-1beta production in C57Bl/6 mouse BMDM cells at 20 uM pretreated for 1 hr prior to ATP-stimulation by ELISA; type: functional, cell-based; conditions: C57BI/6
[4] = test system: BMDM; assay: Inhibition of IL10 production in C57Bl/6 mouse BMDM cells by ELISA; type: functional, cell-based; conditions: C57BI/6
[5] = test system: Staphylococcus epidermidis; assay: Antibacterial activity against Staphylococcus epidermidis ATCC 35984 incubated overnight by broth microdilution method; type: functional
[6] = test system: Staphylococcus aureus; assay: Antibacterial activity against Staphylococcus aureus ATCC 35556 incubated overnight by broth microdilution method; type: functional
[7] = test system: Pseudomonas aeruginosa; assay: Antibacterial activity against Pseudomonas aeruginosa ATCC 27853 at 658 uM incubated overnight by broth microdilution method; type: functional, organism-based
[8] = test system: Escherichia coli; assay: Antibacterial activity against Escherichia coli ATCC 25922 at 658 uM incubated overnight by broth microdilution method; type: functional, organism-based
[9] = test system: Staphylococcus epidermidis; assay: Antibiofilm activity against Staphylococcus epidermidis ATCC 35984 assessed as inhibition of 24 hrs pre-established biofilm formation at 0.064 umol/well after 20 hrs by safranin staining-based method; type: functional, organism-based
[10] = test system: Staphylococcus epidermidis; assay: Antibiofilm activity against Staphylococcus epidermidis ATCC 35984 assessed as 6 hrs pre-established biofilm viable cell count after 20 hrs (reference value: 8.3 x 10^9 CFU/ml); type: functional
[11] = test system: Staphylococcus epidermidis; assay: Antibiofilm activity against Staphylococcus epidermidis ATCC 35984 assessed as 24 hrs pre-established biofilm viable cell count after 20 hrs (reference value: 1.4 x 10^10 +/- 2.6 x 10^9 CFU/ml); type: functional
[12] = test system: Staphylococcus epidermidis; assay: Antibiofilm activity against Staphylococcus epidermidis ATCC 35984 assessed as inhibition of 24 hrs pre-established biofilm formation at 0.064 umol/well after 20 hrs by visible spectrometric analysis; type: functional, organism-based
[13] = test system: Staphylococcus epidermidis; assay: Antibiofilm activity against Staphylococcus epidermidis ATCC 35984 assessed as induction of loosely attached live and dead bacteria in 12 hrs pre-established biofilm at 0.064 umol/well after 20 hrs by fluorescence staining-based confocal microscopic analysis; type: functional, organism-based
[14] = test system: Staphylococcus aureus; assay: Antibiofilm activity against Staphylococcus aureus ATCC 35556 assessed as inhibition of 24 hrs pre-established biofilm formation at 0.064 umol/well after 20 hrs by safranin staining-based method; type: functional, organism-based
[15] = test system: Staphylococcus epidermidis; assay: (§1) Antibiofilm activity against Staphylococcus epidermidis ATCC 35984 assessed as inhibition of 12 hrs pre-established biofilm formation after 20 hrs by safranin staining-based UV-visible spectroscopic analysis using compound impregnated in polypropylene mesh; type: functional, organism-based
[16] = test system: Staphylococcus epidermidis; assay: as §1, with “as” for “as inhibition of”, “viable cell count at 0.01 umol/mesh” for “formation”, “mesh (reference value: 8.6 x 10^9 CFU/ml)” for “mesh”; type: functional
[17] = test system: Staphylococcus epidermidis; assay: as §1, with “as” for “as inhibition of”, “viable cell count at 0.02 umol/mesh” for “formation”, “mesh (reference value: 8.6 x 10^9 CFU/ml)” for “mesh”; type: functional
[18] = test system: Staphylococcus epidermidis; assay: as §1, with “as” for “as inhibition of”, “viable cell count at 0.16 umol/mesh” for “formation”, “mesh (reference value: 8.6 x 10^9 CFU/ml)” for “mesh”; type: functional
[19] = test system: Staphylococcus epidermidis; assay: Antibiofilm activity against Staphylococcus epidermidis ATCC 35984 assessed as 12 hrs pre-established supernatant viable cell count at 0.02 umol/mesh after 20 hrs by […] using compound impregnated in polypropylene mesh (Rvb =7.7 x 10^8 CFU/ml); type: functional
[20] = test system: Staphylococcus epidermidis; assay: Antibiofilm activity against Staphylococcus epidermidis ATCC 35984 assessed as 12 hrs pre-established supernatant viable cell count at 0.04 umol/mesh after 20 hrs by […] using compound impregnated in polypropylene mesh (Rvb =7.7 x 10^8 CFU/ml); type: functional
[21] = test system: Staphylococcus epidermidis; assay: Antibiofilm activity against Staphylococcus epidermidis ATCC 35984 assessed as 12 hrs pre-established supernatant viable cell count at 0.08 umol/mesh after 20 hrs by […] using compound impregnated in polypropylene mesh (Rvb =7.7 x 10^8 CFU/ml); type: functional
[22] = test system: Staphylococcus epidermidis; assay: Antibiofilm activity against Staphylococcus epidermidis ATCC 35984 assessed as 12 hrs pre-established supernatant viable cell count at 0.16 umol/mesh after 20 hrs by […] using compound impregnated in polypropylene mesh (Rvb =7.7 x 10^8 CFU/ml); type: functional
[23] = Cytotoxicity against C57Bl/6 mouse BMDM cells assessed as cell viability at <=80 uM after 72 hrs by MTS assay; type: cell-based, C57BI/6
[24] = Induction of apoptosis in C57Bl/6 mouse BMDM cells assessed as dead cells at 2.5 uM by annexin V-FITC/DAPI staining-based flow cytometric analysis (reference value: 24.4%); type: functional, C57BI/6
[25] = Induction of apoptosis in C57Bl/6 mouse BMDM cells assessed as late apoptotic cells at 2.5 uM by annexin V-FITC/DAPI staining-based flow cytometric analysis (reference value: 28.4%); type: functional, C57BI/6
[26] = Induction of apoptosis in C57Bl/6 mouse BMDM cells assessed as viable cells at 2.5 uM by annexin V-FITC/DAPI staining-based flow cytometric analysis (reference value: 46.7%); type: functional; conditions: C57BI/6, BMDM, read-out: Activity
[27] = Induction of apoptosis in C57Bl/6 mouse BMDM cells assessed as late apoptotic cells at 20 uM by annexin V-FITC/DAPI staining-based flow cytometric analysis (reference value: 28.4%); type: functional, C57BI/6
[28] = Induction of apoptosis in C57Bl/6 mouse BMDM cells assessed as early apoptotic cells at 20 uM by annexin V-FITC/DAPI staining-based flow cytometric analysis (reference value: 0.49%); type: functional, C57BI/6
[29] = Induction of apoptosis in C57Bl/6 mouse BMDM cells assessed as viable cells at 40 uM by annexin V-FITC/DAPI staining-based flow cytometric analysis (reference value: 46.7%); type: functional; conditions: C57BI/6, BMDM, read-out: Activity
[30] = Induction of apoptosis in C57Bl/6 mouse BMDM cells assessed as early apoptotic cells at 40 uM by annexin V-FITC/DAPI staining-based flow cytometric analysis (reference value: 0.49%); type: functional, C57BI/6
[31] = Induction of apoptosis in C57Bl/6 mouse BMDM cells assessed as dead cells at 160 uM by annexin V-FITC/DAPI staining-based flow cytometric analysis (reference value: 24.4%); type: functional, C57BI/6
[32] = Induction of apoptosis in C57Bl/6 mouse BMDM cells assessed as late apoptotic cells at 160 uM by annexin V-FITC/DAPI staining-based flow cytometric analysis (reference value: 28.4%); type: functional, C57BI/6
[33] = Induction of apoptosis in C57Bl/6 mouse BMDM cells assessed as early apoptotic cells at 160 uM by annexin V-FITC/DAPI staining-based flow cytometric analysis (reference value: 0.49%); type: functional, C57BI/6

CC(C)=CCC[C@H](C)[C@@H]1CC[C@@H](C)c2c(O)cc(C(=O)O)cc21
inhibition [1]: Active | Activity [2]: inactive | Activity [3]: inactive | inhibition [4]: inactive | MBC [5]: 82 µM (≈ 25.9 µg/mL) | MIC [5]: 82 µM (≈ 25.9 µg/mL) | MBC [6]: 41 µM (≈ 13 µg/mL) | MIC [6]: 41 µM (≈ 13 µg/mL) | Activity [7]: inactive | Activity [8]: inactive | Activity [9]: inactive | Activity [10]: 0 CFU/ml | Activity [11]: 4.2 ×10⁸ CFU/ml | inhibition [12]: Active | Activity [13]: Active | inhibition [14]: Active | inhibition [15]: Dose-dependent effect | Activity [16]: 1.6 ×10⁹ CFU/ml | Activity [17]: 9.1 ×10⁸ CFU/ml | Activity [18]: 3.9 ×10⁴ CFU/ml | Activity [19]: 5 ×10⁷ CFU/ml | Activity [20]: 1.5 ×10⁷ CFU/ml | Activity [21]: 4.4 ×10⁴ CFU/ml | Activity [22]: 9 ×10³ CFU/ml | Activity [23]: Non-toxic | Activity [24]: 13.3% | Activity [25]: 32.7% | viability at 2.5 µM [26]: 51.4% | Activity [27]: 27% | Activity [28]: 4.05% | viability at 40 µM [29]: 49.5% | Activity [30]: 0.99% | Activity [31]: 0.63% | Activity [32]: 3.88% | Activity [33]: 42.5%
